# Test results: patent US7524510B2, “Alkyl-glycoside enhanced vaccination” (The UAB Research Foundation, priority 2005, dated 2009)
# Key:
# mice [1] = experiment: Enhancement of potency of E. coli-vectored epicutaneous vaccine, co-administered without ablation of the stratum corneum; type: in vivo, mouse; details: topical E. coli vector expressing tetC mixed with TDM, skin not ablated by brushing, sera 2 months postimmunization
# Description: Preliminary tests of the ability of tetradecyl-β-D maltoside (purchased from Anatrace) to enhance the potency of an E. coli-vectored epicutaneous vaccine when co-administered without ablation of the stratum corneum were conducted. Specifically, mice were immunized by topical application of an E. coli vector expressing tetC mixed with TDM at the indicated concentration and sera were analyzed 2 months postimmunization.
# mice [2] = experiment: Enhancement of potency of adenovirus-vectored epicutaneous vaccine, co-administered without ablation of the stratum corneum; type: in vivo, mouse; details: topical adenovirus vector expressing tetC mixed with TDM, no ablation of stratum corneum, sera 1 month postimmunization
# Description: Tests of the ability of TDM to enhance the potency of an adenovirus-vectored epicutaneous vaccine when co-administered without ablation of the stratum comeum were also conducted. Here, mice were immunized by topical application of an adenovirus vector expressing tetC mixed with TDM at the indicated concentration, and sera were analyzed 1 month postimmunization.
# Mouse skin = experiment: Permeabilization of stratum corneum, electron microscopy of cutaneous architecture; type: in vivo; details: mouse skin ablated by mechanical brushing, topical TDM incubated 15 min with naked skin
# Description: Mouse skin was ablated by mechanical brushing prior to topical application of TDM, followed by incubation of TDM at the indicated concentration with naked skin for 15 min, followed by examination of the cutaneous architecture under an electron microscope.
smiles,measurement,setting,value
"CCCCCCCCCCCCCCO[C@@H]1O[C@H](CO)[C@@H](O[C@H]2O[C@H](CO)[C@@H](O)[C@H](O)[C@H]2O)[C@H](O)[C@H]1O [TDM, tetradecyl-β-D-maltoside]",enhancement of the potency of an E. coli-vectored epicutaneous vaccine (sera analyzed),mice [1],No increase over the control
same,enhancement of the potency of an adenovirus-vectored epicutaneous vaccine (sera analyzed),mice [2],No significant increase over the control
same,effect on stratum corneum (cutaneous architecture under electron microscope),Mouse skin,permeablization of the stratum comeum
